According to PubChem BioAssay AID248 (DTP/NCI, 2004):
Where “and” joins values, the source holds several entries; their conditions need not be identical. Equal entries are not always repeated. Inconclusive results and toxic doses are left out.

Tested on: L1210 leukemia ip in BDF1 mice, survival T/C
Experiment: NCI In Vivo Anticancer Drug Screen. Data for tumor model L1210 Leukemia (intraperitoneal) in B6D2F1 (BDF1) mice
Details: higher = longer survival
Procedure, shortened: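 In this screen, tumor-bearing mice given compound are compared to those given vehicle, and their survival values are reported as a treated-to-control quotient.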

[1] = endpoint: mean survival time, dose: 100.0 mg/kg/injection, schedule: Q01DX009 (ip), vehicle: Klucel (hydroxypropylcellulose) (HPC)
[2] = endpoint: mean survival time, dose: 200.0 mg/kg/injection, schedule: Q01DX009 (ip), vehicle: Klucel (hydroxypropylcellulose) (HPC)
[3] = endpoint: mean survival time, dose: 400.0 mg/kg/injection, schedule: Q01DX009 (ip), vehicle: Klucel (hydroxypropylcellulose) (HPC)
[4] = endpoint: mean survival time, dose: 25.0 mg/kg/injection, schedule: Q04DX002 (ip), vehicle: saline
[5] = endpoint: mean survival time, dose: 50.0 mg/kg/injection, schedule: Q04DX002 (ip), vehicle: saline
[6] = endpoint: mean survival time, dose: 100.0 mg/kg/injection, schedule: Q04DX002 (ip), vehicle: saline
[7] = endpoint: mean survival time, dose: 50.0 mg/kg/injection, schedule: Q01DX009 (ip), vehicle: Klucel (hydroxypropylcellulose) (HPC)
[8] = endpoint: mean survival time, dose: 100.0 mg/kg/injection, schedule: Q04DX003 (ip), vehicle: Klucel (hydroxypropylcellulose) (HPC)
[9] = endpoint: mean survival time, dose: 100.0 mg/kg/injection, schedule: Q01DX001 (ip), vehicle: saline
[10] = endpoint: mean survival time, dose: 200.0 mg/kg/injection, schedule: Q01DX001 (ip), vehicle: saline
[11] = endpoint: mean survival time, dose: 400.0 mg/kg/injection, schedule: Q01DX001 (ip), vehicle: saline

CC1OC(n2cnc3c(N)ncnc32)C(O)C1O (configuration not stated)
T/C (endpoint: mean survival time, dose: 50.0 mg/kg/injection, schedule: Q01DX001 (sc), vehicle: carboxymethylcellulose (CMC)): 104 % of control | T/C (endpoint: mean survival time, dose: 100.0 mg/kg/injection, schedule: Q01DX001 (sc), vehicle: carboxymethylcellulose (CMC)): 90 % of control | T/C (endpoint: mean survival time, dose: 200.0 mg/kg/injection, schedule: Q01DX001 (sc), vehicle: carboxymethylcellulose (CMC)): 93 % of control | T/C (endpoint: mean survival time, dose: 400.0 mg/kg/injection, schedule: Q01DX001 (sc), vehicle: carboxymethylcellulose (CMC)): 106 % of control

CS(=O)(=O)OCc1c(O)c2c(c(O)c1COS(C)(=O)=O)C(=O)C=CC2=O
T/C (endpoint: mean survival time, dose: 25.0 mg/kg/injection, schedule: Q01DX009 (ip), vehicle: water): 94 % of control | T/C (endpoint: mean survival time, dose: 50.0 mg/kg/injection, schedule: Q01DX009 (ip), vehicle: water): 97 % of control

CN(C)c1ccc(N=Nc2cccc([N+](=O)[O-])c2)cc1
T/C [1]: 105 % of control | T/C [2]: 97 % of control | T/C [3]: 100 % of control

COC(=O)C1(CN(C)C)CCCC(CN(C)C)(C(=O)OC)C1=O (configuration not stated)
T/C (endpoint: mean survival time, dose: 50.0 mg/kg/injection, schedule: Q01DX Z (ip), vehicle: carboxymethylcellulose (CMC)): 100 % of control and 106 % of control | T/C (endpoint: mean survival time, dose: 75.0 mg/kg/injection, schedule: Q01DX Z (ip), vehicle: carboxymethylcellulose (CMC)): 106 % of control and 109 % of control | T/C (endpoint: mean survival time, dose: 115.0 mg/kg/injection, schedule: Q01DX Z (ip), vehicle: carboxymethylcellulose (CMC)): 113 % of control | T/C (endpoint: mean survival time, dose: 160.0 mg/kg/injection, schedule: Q01DX Z (ip), vehicle: carboxymethylcellulose (CMC)): 106 % of control and 113 % of control

CCCCSc1ccc2c(cc1=O)C(NC(C)=O)CCc1cc(OC)c(OC)c(OC)c1-2 (configuration not stated)
T/C [4]: 98 % of control | T/C [5]: 98 % of control | T/C [6]: 120 % of control

Fc1ccc(P(c2ccc(F)cc2)c2ccc(F)cc2)cc1
T/C (endpoint: mean survival time, dose: 25.0 mg/kg/injection, schedule: Q01DX009 (ip), vehicle: Klucel (hydroxypropylcellulose) (HPC)): 97 % of control | T/C [7]: 89 % of control | T/C [8]: 103 % of control

O=C(O)c1ccc(/C=N/N=C2c3ccccc3-c3ccccc32)cc1
T/C (endpoint: mean survival time, dose: 75.0 mg/kg/injection, schedule: Q01DX001 (ip), vehicle: other): 91 % of control | T/C (endpoint: mean survival time, dose: 150.0 mg/kg/injection, schedule: Q01DX001 (ip), vehicle: other): 86 % of control | T/C (endpoint: mean survival time, dose: 300.0 mg/kg/injection, schedule: Q01DX001 (ip), vehicle: other): 95 % of control

COc1ccc(CC(N)C(=O)N2CC(n3cnc4c(N(C)C)ncnc43)CC2CO)cc1 (configuration not stated)
T/C [4]: 98 % of control | T/C [5]: 119 % of control | T/C [6]: 105 % of control

CC1CC(C)(C)C(C[NH-])C1[NH-].[Cl][Pt+2][Cl] (configuration not stated)
T/C (endpoint: median survival time, dose: 7.5 mg/kg/injection, schedule: Q01DX009 (ip), vehicle: saline): 189 % of control | T/C (endpoint: median survival time, dose: 15.0 mg/kg/injection, schedule: Q01DX001 (ip), vehicle: saline): 173 % of control | T/C (endpoint: median survival time, dose: 15.0 mg/kg/injection, schedule: Q01DX009 (ip), vehicle: saline): 205 % of control | T/C (endpoint: median survival time, dose: 30.0 mg/kg/injection, schedule: Q01DX001 (ip), vehicle: saline): 189 % of control | T/C (endpoint: median survival time, dose: 30.0 mg/kg/injection, schedule: Q01DX009 (ip), vehicle: saline): 105 % of control | T/C (endpoint: median survival time, dose: 60.0 mg/kg/injection, schedule: Q01DX001 (ip), vehicle: saline): 154 % of control | T/C (endpoint: median survival time, dose: 60.0 mg/kg/injection, schedule: Q01DX009 (ip), vehicle: saline): 87 % of control | T/C (endpoint: median survival time, dose: 120.0 mg/kg/injection, schedule: Q01DX001 (ip), vehicle: saline): 209 % of control

C[N+](C)(C)CCOC(=O)Nc1ccc(C(c2ccc(NC(=O)OCC[N+](C)(C)C)cc2)c2ccc(NC(=O)OCC[N+](C)(C)C)cc2)cc1
T/C (endpoint: mean survival time, dose: 0.25 mg/kg/injection, schedule: Q01DX009 (ip), vehicle: saline with Tween-80): 98 % of control | T/C (endpoint: mean survival time, dose: 0.5 mg/kg/injection, schedule: Q01DX009 (ip), vehicle: saline with Tween-80): 100 % of control

NC(CSS(=O)(=O)O)=NCCCCOc1ccccc1
T/C (endpoint: mean survival time, dose: 6.25 mg/kg/injection, schedule: Q04DX002 (ip), vehicle: Klucel (hydroxypropylcellulose) (HPC)): 111 % of control | T/C (endpoint: mean survival time, dose: 12.5 mg/kg/injection, schedule: Q04DX002 (ip), vehicle: Klucel (hydroxypropylcellulose) (HPC)): 89 % of control | T/C (endpoint: mean survival time, dose: 25.0 mg/kg/injection, schedule: Q04DX002 (ip), vehicle: Klucel (hydroxypropylcellulose) (HPC)): 108 % of control | T/C (endpoint: mean survival time, dose: 100.0 mg/kg/injection, schedule: Q04DX002 (ip), vehicle: Klucel (hydroxypropylcellulose) (HPC)): 97 % of control

Cc1ccc(C(=O)CCN2CCOCC2)c(C)c1
T/C [9]: 102 % of control | T/C [10]: 96 % of control | T/C [11]: 96 % of control

Cn1cnc([N+](=O)[O-])c1SC#N
T/C (endpoint: mean survival time, dose: 15.0 mg/kg/injection, schedule: Q01DX001 (ip), vehicle: carboxymethylcellulose (CMC)): 100 % of control

Nc1nc(SCc2ccccc2)nc2nc[nH]c12
T/C (endpoint: mean survival time, dose: 50.0 mg/kg/injection, schedule: Q01DX001 (ip), vehicle: Klucel (hydroxypropylcellulose) (HPC)): 91 % of control | T/C (endpoint: mean survival time, dose: 100.0 mg/kg/injection, schedule: Q01DX001 (ip), vehicle: Klucel (hydroxypropylcellulose) (HPC)): 95 % of control | T/C (endpoint: mean survival time, dose: 200.0 mg/kg/injection, schedule: Q01DX001 (ip), vehicle: Klucel (hydroxypropylcellulose) (HPC)): 93 % of control

OCC1OCOC2C(CO)OCOC12 (configuration not stated)
T/C (endpoint: mean survival time, dose: 25.6 mg/kg/injection, schedule: Q04DX002 (ip), vehicle: saline with Tween-80): 104 % of control | T/C (endpoint: mean survival time, dose: 64.0 mg/kg/injection, schedule: Q04DX002 (ip), vehicle: saline with Tween-80): 101 % of control | T/C (endpoint: mean survival time, dose: 160.0 mg/kg/injection, schedule: Q04DX002 (ip), vehicle: saline with Tween-80): 101 % of control | T/C (endpoint: mean survival time, dose: 400.0 mg/kg/injection, schedule: Q04DX002 (ip), vehicle: saline with Tween-80): 96 % of control

CCOC(=O)CC(=O)CC(C)C
T/C [8]: 101 % of control | T/C (endpoint: mean survival time, dose: 200.0 mg/kg/injection, schedule: Q04DX003 (ip), vehicle: Klucel (hydroxypropylcellulose) (HPC)): 97 % of control | T/C (endpoint: mean survival time, dose: 400.0 mg/kg/injection, schedule: Q04DX003 (ip), vehicle: Klucel (hydroxypropylcellulose) (HPC)): 88 % of control

CN(CCO)C1CCCCCCC1
T/C (endpoint: mean survival time, dose: 100.0 mg/kg/injection, schedule: Q01DX001 (ip), vehicle: acetone): 100 % of control

COC(=O)c1ccccc1SSc1ccccc1C(=O)OC
T/C (endpoint: mean survival time, dose: 100.0 mg/kg/injection, schedule: Q04DX003 (ip), vehicle: saline with Tween-80): 95 % of control | T/C (endpoint: mean survival time, dose: 200.0 mg/kg/injection, schedule: Q04DX003 (ip), vehicle: saline with Tween-80): 102 % of control | T/C (endpoint: mean survival time, dose: 400.0 mg/kg/injection, schedule: Q04DX003 (ip), vehicle: saline with Tween-80): 102 % of control

CC(=O)C[n+]1ccccc1
T/C [9]: 106 % of control and 97 % of control | T/C (endpoint: mean survival time, dose: 100.0 mg/kg/injection, schedule: Q01DX009 (ip), vehicle: acetone): 96 % of control | T/C [10]: 100 % of control and 95 % of control | T/C (endpoint: mean survival time, dose: 200.0 mg/kg/injection, schedule: Q01DX009 (ip), vehicle: acetone): 105 % of control | T/C [11]: 89 % of control and 97 % of control | T/C (endpoint: mean survival time, dose: 400.0 mg/kg/injection, schedule: Q01DX009 (ip), vehicle: acetone): 89 % of control

CC(=O)C1=CN(C(C)(C)C)COC1C (configuration not stated)
T/C [7]: 104 % of control | T/C [1]: 95 % of control | T/C [2]: 110 % of control

O=C(/C=C/c1ccccc1)CC(=O)c1ccccc1.O=C(/C=C/c1ccccc1)CC(=O)c1ccccc1.[Cu]
T/C (endpoint: mean survival time, dose: 50.0 mg/kg/injection, schedule: Q01DX001 (ip), vehicle: saline): 94 % of control | T/C [9]: 91 % of control | T/C [10]: 91 % of control | T/C [11]: 97 % of control

CCCC(=O)c1cc(C)ccc1OC
T/C (endpoint: mean survival time, dose: 100.0 mg/kg/injection, schedule: Q01DX001 (ip), vehicle: carboxymethylcellulose (CMC)): 103 % of control | T/C (endpoint: mean survival time, dose: 200.0 mg/kg/injection, schedule: Q01DX001 (ip), vehicle: carboxymethylcellulose (CMC)): 106 % of control | T/C (endpoint: mean survival time, dose: 400.0 mg/kg/injection, schedule: Q01DX001 (ip), vehicle: carboxymethylcellulose (CMC)): 106 % of control

CC(C)(O)c1cnc(OCc2ccccc2)nc1OCc1ccccc1
T/C [1]: 98 % of control | T/C (endpoint: mean survival time, dose: 100.0 mg/kg/injection, schedule: Q04DX003 (ip), vehicle: other): 101 % of control | T/C [2]: 100 % of control | T/C (endpoint: mean survival time, dose: 200.0 mg/kg/injection, schedule: Q04DX003 (ip), vehicle: other): 106 % of control | T/C [3]: 103 % of control | T/C (endpoint: mean survival time, dose: 400.0 mg/kg/injection, schedule: Q04DX003 (ip), vehicle: other): 101 % of control

CC(=O)N(C)c1ccccc1
T/C [6]: 99 % of control

CCCCCCCCCC(=O)N(CC)CC
T/C (endpoint: mean survival time, dose: 200.0 mg/kg/injection, schedule: Q04DX002 (ip), vehicle: saline): 111 % of control | T/C (endpoint: mean survival time, dose: 400.0 mg/kg/injection, schedule: Q04DX002 (ip), vehicle: saline): 92 % of control
